Bridge positions count the residues as written; N and C are the ends. Square brackets hold non-standard residues; d marks the D form. Peptide text beside a SMILES is read from it. * marks the point of attachment. hPhe(3,5-F2-4-CF3) = N[C@@H](CCc1cc(F)c(C(F)(F)F)c(F)c1)C(=O)O; hPhe(3-Cl-4-CF3) = N[C@@H](CCc1ccc(C(F)(F)F)c(Cl)c1)C(=O)O; hPhe(3-F,4-CF3) = N[C@@H](CCc1ccc(C(F)(F)F)c(F)c1)C(=O)O; 3Oxa8azabicyclo(3.2.1)octane = C1CC2COCC1N2*; NMePhe(4-Me) = CN[C@@H](Cc1ccc(C)cc1)C(=O)O; NMeAla(cPent) = CN[C@@H](CC1CCCC1)C(=O)O; NMeGly(cPent) = CN[C@H](C(=O)O)C1CCCC1; NMeCha = CN[C@@H](CC1CCCCC1)C(=O)O; NMehLeu = CN[C@@H](CCC(C)C)C(=O)O; NEtLeu = CCN[C@@H](CC(C)C)C(=O)O; NMeI = CC[C@H](C)[C@H](NC)C(=O)O; Piperidide(4-Me) = CC1CCN(*)CC1; X17 = FC1(F)CN(*)CC(F)(F)C1(F)F; NMeD = CN[C@@H](CC(=O)O)C(=O)O; NMeL = CN[C@@H](CC(C)C)C(=O)O; NMeV = CN[C@H](C(=O)O)C(C)C; d(β3hA) = C[C@@H](N)CC(=O)O; Azetidin(1-yl) = C1CN(*)C1; NMeS = CN[C@@H](CO)C(=O)O; Morpholide = C1CN(*)CCO1; NMeA = CN[C@@H](C)C(=O)O; Piperidide = C1CCN(*)CC1; Ac5c = NC1(C(=O)O)CCCC1; Aze = O=C(O)[C@@H]1CCN1; X53 = CC1(C)CCN(*)C1; NEtG = CCNCC(=O)O; Sar = CNCC(=O)O; Propyl = CCC*

These results are taken from US20240148821A1, “PHARMACEUTICAL USE OF CYCLIC PEPTIDE COMPOUND” (CHUGAI SEIYAKU KABUSHIKI KAISHA, priority 2021, published 2024).

The target of the assay is protein-protein interaction between Kras and SOS1 (biotin-tagged human Kras loaded with GDP, His-tagged human SOS1) (Homo sapiens (Human), UniProt P01116, G12D). As to the kind of experiment: Protein-protein interaction inhibition between Kras and SOS1 (KrasG12D-SOS PPI) using AlphaScreen.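 Further: kras produced in E. coli, Ni-coupled donor beads and streptavidin acceptor beads, excitation 680 nm with emission detected at 520–620 nm via singlet oxygen transfer.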 The following applies: AlphaScreen; biotin-tagged human Kras loaded with GDP, His-tagged human SOS1; read-out: KRAS G12D-SOS PPI IC50. The format is biochemical.
What is called IC50 is the concentration that inhibits the measured activity by half. For `CCCOC[C@H]1C(=O)N(C)CC(=O)N[C@@H](CCc2ccc(C(F)(F)F)c(Cl)c2)C(=O)N2CCC[C@H]2C(=O)NC2(CCCC2)C(=O)N(C)[C@@H](C2CCCC2)C(=O)N(C)[C@H](C(=O)N2C3CCC2COC3)CC(=O)N(C)[C@@H](CC2CCCC2)C(=O)N[C@@H]([C@@H](C)CC)C(=O)N(C)[C@@H](C)C(=O)N2CC[C@H]2C(=O)N1C` [Compound 1251] ([NMeAla(cPent)]I[NMeA][Aze][NMeS](Propyl)[Sar][hPhe(3-Cl-4-CF3)]P[Ac5c][NMeGly(cPent)][NMeD]-{3Oxa8azabicyclo(3.2.1)octane}; lactam N-11), the concentration for half-maximal inhibition (IC50) came to 2.6 nM.
In the case of `CC[C@H](C)[C@@H]1NC(=O)[C@H](CC(C)C)N(CC)C(=O)C[C@@H](C(=O)N2CCC2)N(C)C(=O)[C@H](C2CCCC2)N(C)C(=O)C2(CCCC2)NC(=O)[C@@H]2CCCN2C(=O)[C@H](CCc2ccc(C(F)(F)F)c(Cl)c2)NC(=O)CN(C)C(=O)[C@H](CC2CCCCC2)N(C)C(=O)[C@@H]2CCN2C(=O)[C@H](C)NC1=O` [Compound 1262] ([NEtLeu]IA[Aze][NMeCha][Sar][hPhe(3-Cl-4-CF3)]P[Ac5c][NMeGly(cPent)][NMeD]-{Azetidin(1-yl)}; lactam N-11) it was 1.3 nM; in that of `CC[C@H](C)[C@@H]1NC(=O)[C@H](CC(C)C)N(C)C(=O)C[C@@H](C(=O)N2CC(F)(F)C(F)(F)C(F)(F)C2)NC(=O)[C@H]([C@@H](C)CC)N(C)C(=O)C2(CCCC2)NC(=O)[C@@H]2CCCN2C(=O)[C@H](CCc2ccc(C(F)(F)F)c(Cl)c2)NC(=O)CN(C)C(=O)[C@H](CC2CCCCC2)N(C)C(=O)CN(C)C(=O)CN(C)C1=O` [Compound 1265] ([NMeL]I[Sar][Sar][NMeCha][Sar][hPhe(3-Cl-4-CF3)]P[Ac5c][NMeI]D-X17; lactam N-11), 280 nM; in that of `CC[C@H](C)[C@@H]1NC(=O)[C@H](CC(C)C)N(CC)C(=O)C[C@@H](C(=O)N2CCOCC2)N(C)C(=O)[C@H](C2CCCC2)N(C)C(=O)C2(CCCC2)NC(=O)[C@@H]2CCCN2C(=O)[C@H](CCc2ccc(C(F)(F)F)c(Cl)c2)NC(=O)CN(C)C(=O)[C@H](CC2CCCCC2)N(C)C(=O)[C@@H]2CCN2C(=O)[C@H](C)NC1=O` [Compound 1266] ([NEtLeu]IA[Aze][NMeCha][Sar][hPhe(3-Cl-4-CF3)]P[Ac5c][NMeGly(cPent)][NMeD]-Morpholide; lactam N-11), 1.2 nM.
In the case of `CC[C@H](C)[C@@H]1NC(=O)[C@H](CC(C)C)N(C)C(=O)C[C@@H](C(=O)N2CCC(C)(C)C2)NC(=O)[C@H](C(C)C)N(C)C(=O)C2(CCCC2)NC(=O)[C@@H]2CCCN2C(=O)[C@H](CCc2ccc(C(F)(F)F)c(Cl)c2)NC(=O)CN(C)C(=O)[C@H](CC2CCCCC2)N(C)C(=O)[C@@H]2CCN2C(=O)[C@H](C)N(C)C1=O` [Compound 1280] ([NMeL]I[NMeA][Aze][NMeCha][Sar][hPhe(3-Cl-4-CF3)]P[Ac5c][NMeV]D-X53; lactam N-11) it was 74 nM; in that of `CC[C@H](C)[C@@H]1NC(=O)[C@H](CC(C)C)N(CC)C(=O)C[C@@H](C(=O)N(C)C)N(C)C(=O)[C@H]([C@@H](C)CC)N(C)C(=O)C2(CCCC2)NC(=O)[C@@H]2CCCN2C(=O)[C@H](CCc2ccc(C(F)(F)F)c(Cl)c2)NC(=O)CN(C)C(=O)[C@H](Cc2ccc(C)cc2)N(C)C(=O)[C@@H]2CCN2C(=O)[C@H](C)NC1=O` [Compound 1287] ([NEtLeu]IA[Aze][NMePhe(4-Me)][Sar][hPhe(3-Cl-4-CF3)]P[Ac5c][NMeI][NMeD]-NMe2; lactam N-11), 1.1 nM; in that of `CC[C@H](C)[C@@H]1NC(=O)[C@H](CC(C)C)N(C)C(=O)C[C@@H](C(=O)N2CCC(C)CC2)N(C)C(=O)[C@H](C(C)C)N(C)C(=O)C2(CCCC2)NC(=O)[C@@H]2CCCN2C(=O)[C@H](CCc2ccc(C(F)(F)F)c(Cl)c2)NC(=O)CN(C)C(=O)[C@H](CC2CCCCC2)N(C)C(=O)[C@@H]2CCN2C(=O)[C@H](C)N(C)C1=O` [Compound 1291] ([NMeL]I[NMeA][Aze][NMeCha][Sar][hPhe(3-Cl-4-CF3)]P[Ac5c][NMeV][NMeD]-{Piperidide(4-Me)}; lactam N-11), 5.4 nM.
In the case of `CC[C@H](C)[C@@H]1NC(=O)[C@H](CCC(C)C)N(C)C(=O)C[C@@H](C(=O)N(C)C)N(C)C(=O)[C@H](C2CCCC2)N(C)C(=O)C2(CCCC2)NC(=O)[C@@H]2CCCN2C(=O)[C@H](CCc2ccc(C(F)(F)F)c(F)c2)NC(=O)CN(C)C(=O)[C@H](CC2CCCCC2)N(C)C(=O)[C@@H]2CCN2C(=O)[C@H](C)NC1=O` [Compound 1292] ([NMehLeu]IA[Aze][NMeCha][Sar][hPhe(3-F,4-CF3)]P[Ac5c][NMeGly(cPent)][NMeD]-NMe2; lactam N-11) it was 2 nM; in that of `CCCOC[C@H]1C(=O)N(C)CC(=O)N[C@@H](CCc2ccc(C(F)(F)F)c(Cl)c2)C(=O)N2CCC[C@H]2C(=O)NC2(CCCC2)C(=O)N(C)[C@@H](C2CCCC2)C(=O)N(C)[C@H](C(=O)N2C3CCC2COC3)CC(=O)N(C)[C@@H](CC(C)C)C(=O)N[C@@H]([C@@H](C)CC)C(=O)N[C@@H](C)C(=O)N2CC[C@H]2C(=O)N1C` [Compound 1299] ([NMeL]IA[Aze][NMeS](Propyl)[Sar][hPhe(3-Cl-4-CF3)]P[Ac5c][NMeGly(cPent)][NMeD]-{3Oxa8azabicyclo(3.2.1)octane}; lactam N-11), 3.6 nM; in that of `CC[C@H](C)[C@@H]1NC(=O)[C@H](CC(C)C)N(C)C(=O)C[C@@H](C(=O)N2CCOCC2)N(C)C(=O)[C@H](C2CCCC2)N(C)C(=O)C2(CCCC2)NC(=O)[C@@H]2CCCN2C(=O)[C@H](CCc2ccc(C(F)(F)F)c(Cl)c2)NC(=O)CN(C)C(=O)[C@H](C2CCCC2)N(C)C(=O)[C@@H]2CCN2C(=O)[C@H](C)NC1=O` [Compound 1309] ([NMeL]IA[Aze][NMeGly(cPent)][Sar][hPhe(3-Cl-4-CF3)]P[Ac5c][NMeGly(cPent)][NMeD]-Morpholide; lactam N-11), 0.85 nM.
As for `CCCOC[C@H]1C(=O)N(C)CC(=O)N[C@@H](CCc2ccc(C(F)(F)F)c(Cl)c2)C(=O)N2CCC[C@H]2C(=O)NC2(CCCC2)C(=O)N(C)[C@@H](C2CCCC2)C(=O)N(C)[C@H](C(=O)N2C3CCC2COC3)CC(=O)N(C)[C@@H](CCC(C)C)C(=O)N[C@@H]([C@@H](C)CC)C(=O)N[C@@H](C)C(=O)N2CC[C@H]2C(=O)N1C` [Compound 1326] ([NMehLeu]IA[Aze][NMeS](Propyl)[Sar][hPhe(3-Cl-4-CF3)]P[Ac5c][NMeGly(cPent)][NMeD]-{3Oxa8azabicyclo(3.2.1)octane}; lactam N-11), the IC50 stood at 5.1 nM.
In the case of `CC[C@H](C)[C@@H]1NC(=O)[C@H](CC(C)C)N(C)C(=O)C[C@@H](C)NC(=O)[C@H](C2CCCC2)N(C)C(=O)C2(CCCC2)NC(=O)[C@@H]2CCCN2C(=O)[C@H](CCc2ccc(C(F)(F)F)c(Cl)c2)NC(=O)CN(C)C(=O)[C@H](Cc2ccc(C)cc2)N(C)C(=O)[C@@H]2CCN2C(=O)[C@H](C)NC1=O` [Compound 1331] (cyclo(A[Aze][NMePhe(4-Me)][Sar][hPhe(3-Cl-4-CF3)]P[Ac5c][NMeGly(cPent)][d(β3hA)][NMeL]I)) it was 1.1 nM.
In the case of `CC[C@H](C)[C@@H]1NC(=O)[C@H](CC(C)C)N(C)C(=O)C[C@@H](C(=O)N2CCCCC2)N(C)C(=O)[C@H](C(C)C)N(C)C(=O)C2(CCCC2)NC(=O)[C@@H]2CCCN2C(=O)[C@H](CCc2ccc(C(F)(F)F)c(Cl)c2)NC(=O)CN(C)C(=O)[C@H](CC2CCCCC2)N(C)C(=O)[C@@H]2CCN2C(=O)[C@H](C)NC1=O` [Compound 1334] ([NMeL]IA[Aze][NMeCha][Sar][hPhe(3-Cl-4-CF3)]P[Ac5c][NMeV][NMeD]-Piperidide; lactam N-11) it was 3 nM; in that of `CCCOC[C@H]1C(=O)N(CC)CC(=O)N[C@@H](CCc2ccc(C(F)(F)F)c(Cl)c2)C(=O)N2CCC[C@H]2C(=O)NC2(CCCC2)C(=O)N(C)[C@@H](C2CCCC2)C(=O)N(C)[C@H](C(=O)N2C3CCC2COC3)CC(=O)N(C)[C@@H](CC(C)C)C(=O)N[C@@H]([C@@H](C)CC)C(=O)N(C)[C@@H](C)C(=O)N2CC[C@H]2C(=O)N1C` [Compound 1338] ([NMeL]I[NMeA][Aze][NMeS](Propyl)[NEtG][hPhe(3-Cl-4-CF3)]P[Ac5c][NMeGly(cPent)][NMeD]-{3Oxa8azabicyclo(3.2.1)octane}; lactam N-11), 17 nM; in that of `CC[C@H](C)[C@@H]1NC(=O)[C@H](CC2CCCC2)N(C)C(=O)C[C@@H](C(=O)N(C)C)N(C)C(=O)[C@H](C2CCCC2)N(C)C(=O)C2(CCCC2)NC(=O)[C@@H]2CCCN2C(=O)[C@H](CCc2ccc(C(F)(F)F)c(F)c2)NC(=O)CN(C)C(=O)[C@H](CC2CCCCC2)N(C)C(=O)[C@@H]2CCN2C(=O)[C@H](C)NC1=O` [Compound 1340] ([NMeAla(cPent)]IA[Aze][NMeCha][Sar][hPhe(3-F,4-CF3)]P[Ac5c][NMeGly(cPent)][NMeD]-NMe2; lactam N-11), 1.2 nM.
In the case of `CC[C@H](C)[C@@H]1NC(=O)[C@H](CC(C)C)N(C)C(=O)C[C@@H](C(=O)N2CCCCC2)NC(=O)[C@H](C(C)C)N(C)C(=O)C2(CCCC2)NC(=O)[C@@H]2CCCN2C(=O)[C@H](CCc2ccc(C(F)(F)F)c(Cl)c2)NC(=O)CN(C)C(=O)[C@H](CC2CCCCC2)N(C)C(=O)[C@@H]2CCN2C(=O)[C@H](C)N(C)C1=O` [Compound 1353] ([NMeL]I[NMeA][Aze][NMeCha][Sar][hPhe(3-Cl-4-CF3)]P[Ac5c][NMeV]D-Piperidide; lactam N-11) it was 11 nM; in that of `CCCOC[C@H]1C(=O)N(C)CC(=O)N[C@@H](CCc2cc(F)c(C(F)(F)F)c(F)c2)C(=O)N2CCC[C@H]2C(=O)NC2(CCCC2)C(=O)N(C)[C@@H](C2CCCC2)C(=O)N(C)[C@H](C(=O)N2C3CCC2COC3)CC(=O)N(C)[C@@H](CC(C)C)C(=O)N[C@@H]([C@@H](C)CC)C(=O)N(C)[C@@H](C)C(=O)N2CC[C@H]2C(=O)N1C` [Compound 1355] ([NMeL]I[NMeA][Aze][NMeS](Propyl)[Sar][hPhe(3,5-F2-4-CF3)]P[Ac5c][NMeGly(cPent)][NMeD]-{3Oxa8azabicyclo(3.2.1)octane}; lactam N-11), 3.2 nM.
